One series deals with human P2X7 channel (Homo sapiens (Human), UniProt Q99572). Put plainly: human P2X7 channel assay by automated patch-clamp (QPatch16X), BzATP-evoked current. It is filed as cell-based. The following applies: HEK-293 cells expressing P2X7, whole-cell voltage clamp, 100 microM BzATP, holding -80 mV; read-out: hP2X7 (IC50; nM). Here is the method: In order to directly monitor the block of P2X7 channel, an electrophysiological assay was developed and implemented on the QPatch16X automated electrophysiology instrument.
human P2X7 channel, sequence (Q99572 whole entry): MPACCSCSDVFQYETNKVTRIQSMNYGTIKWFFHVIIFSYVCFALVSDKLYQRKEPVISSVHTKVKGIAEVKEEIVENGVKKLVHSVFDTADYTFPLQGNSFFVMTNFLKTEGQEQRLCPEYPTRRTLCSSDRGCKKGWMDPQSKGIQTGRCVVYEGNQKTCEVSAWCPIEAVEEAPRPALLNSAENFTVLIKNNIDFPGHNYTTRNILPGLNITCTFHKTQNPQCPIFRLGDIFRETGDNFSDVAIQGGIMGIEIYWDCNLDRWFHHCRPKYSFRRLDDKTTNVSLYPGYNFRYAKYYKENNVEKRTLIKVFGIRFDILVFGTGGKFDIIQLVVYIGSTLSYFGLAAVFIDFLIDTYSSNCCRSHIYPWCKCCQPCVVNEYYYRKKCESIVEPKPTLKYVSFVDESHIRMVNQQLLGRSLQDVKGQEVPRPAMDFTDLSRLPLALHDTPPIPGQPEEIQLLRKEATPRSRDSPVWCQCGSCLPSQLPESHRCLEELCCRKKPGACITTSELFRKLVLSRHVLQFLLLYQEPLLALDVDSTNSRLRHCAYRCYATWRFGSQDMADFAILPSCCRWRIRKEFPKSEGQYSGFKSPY
HEK-293 cells expressing the P2X7 channels were cultured in modified EMEM.
72 hours before experiment, 5 million cells were seeded onto T225 flasks. Just before the experiment cells were washed twice, detached from the flask with trypsin-EDTA, re-suspended in the suspension solution and placed on the QPatch 16x.
The compounds (20 mM in a 100% DMSO) stored at −20° C. were prepared the day of the experiment (a first dilution 1:20 in 100% DMSO to prepare a 1 mM stock solution, then a 1 microM solution in external solution+a serial dilution 1:10).
The standard whole-cell voltage clamp experiments were performed at room temperature. For these experiments the multihole technology was used and the data were sampled at 2 KHz.
After establishment of the seal and the passage in the whole cell configuration, the cells were held at −80 mV. The P2XR7 current was evoked by applying 100 microM of BzATP alone (4 times) and then in the presence increasing concentrations of the compound under investigation (1, 10, 100 and 1000 nM).
The pre-incubation periods 5 to 8 contain increasing concentrations of the compound of interest (1, 10, 100 and 1000 nM), as illustrated in FIGURE.
The maximal inward current evoked by BzATP in absence or presence of increasing concentrations of the compounds under investigation was measured and normalized.
Y: normalized response, 100% down to 0%, decreasing as X increases.
LogIC50: same log units as X
HillSlope: slope factor or HS, unitless
A general note: Patch clamp records ionic current or voltage across a cell membrane.

A further series concerns the target rat P2X7R (Rattus norvegicus (Rat), UniProt Q64663). Put plainly: rat P2X7 Ca2+ influx, Screen Quest Fluo-8 No Wash Calcium Assay Kit (FLIPR TETRA). The following applies: read-out: rP2X7 (IC50; nM). Format: cell-based. Here is the method:
Ca^2+ influx was measured in HEK-293 cells stably transfected with the receptor using Screen Quest™ Fluo-8 No Wash Calcium Assay Kit (AAt Bioquest®). Briefly, once inside the cells, the lipophilic blocking groups of Fluo-8 are cleaved by non-specific cell esterases, resulting in a negatively-charged fluorescent-dye that stays inside cells. Its fluorescence increases upon binding to calcium. When HEK-293/P2X7 cells were stimulated with BzATP, Ca^2+ entered the cells and the fluorescence of Fluo-8 NW increaseed.
To routinely test the compounds, HEK-293 cells stably transfected with rat P2X7R were seeded overnight in growth medium at 10000, 15000 or 20000 cells/well in 384-well plate, according to the level of response after thawing. 24 hours later, the medium was removed and the cells were pre-loaded at RT for 1 hour with 20 μL/w of Fluo-8 NW prepared in Tyrode 0.3 mM Ca^2+/Mg^2+-free.
Compounds were tested at […] according to the following method: • first injection at […] of 10 μL of 3× test compound (in Tyrode's buffer 0.3 mM Ca^2+/Mg^2+-free+DMSO 0.5% final concentration) • 5′ incubation • second injection at […] of 15 µL of 3× BzATP at ˜ECK) (in Tyrode's buffer 0.3 mM Ca^2+/Mg^2+-free+BSA 0.0003% final concentration) • Fluorescence recording for 3′
Between one plate and the following, tips were extensively washed with water, then with 100% DMSO and finally with water to avoid carry-over inside the tips.
The effect of the test compounds was measured as percent inhibition vs a reference antagonist and IC50 values were calculated accordingly.

Series [1] in a line: metabolic stability using Human liver Microsomes. The arrangement: unit not given here. Format: in vitro ADME. The following applies: 1 μM test compound, 1 mg/mL protein, pH 7.4, 0-60 min. Here is the method: In vitro evaluation of test compounds for metabolic stability using Human liver
Test System Human (Mouse) Liver Microsomes
Test compound concentration: 1μM
Time Points: 0, 5, 10, 30 and 60 minutes
Final Protein concentration: 1 mg/mL
Number of Replicates: Two
Potassium Phosphate Buffer pH 7.4 100 mM
End Point: % Remaining of Test compound, Half life, Clint
Preparation and Dilution of Test Compound:
10 mM stock solution of test compound were prepared in DMSO and dilute with water: acetonitrile (1:1) to a concentration of 1 mM. Working concentration of 100 μM were prepared by further dilution with water: acetonitrile (1: 1).
Preparation of Potassium Phosphate buffer pH 7.4:
100 mL of Milli Q water will be added to K2HPO4 (1.398 g) and KH2PO4 (0.27 g) to get final pH 7.4.
Preincubation mixture: 2.5 μL Test Cpd.+75 μL Liver microsomes@3.33 mg/mL+85 μL of 100 mM potassium phosphate buffer (Preincubate for 10 min @37° C.)
60 min w/o cofactor: 32.5 μL of Preincubation mixture+17.5 μL of 100 mM potassium phosphate buffer (Incubate for 60 min@37° C.)
0 min sample: 16.25 μL of Preincubation mixture+200 μL of acetonitrile containing internal standard+8.75 μL of cofactor Incubation mixture 62 μL of cofactor (2.5 mM)+Remaining incubation mixture (Incubated for 60 min@37° C.).
Sample preparation: 25 μL incubation mixture+200 μL of acetonitrile containing internal standard+Vortex 5 min@1200 rpm+Centrifuge 10 min@4000 rpm. Dilute supernatant 2 fold with water and injected on LC-MS/MS.
Bioanalysis: LC-MS/MS method LC generic gradient conditions will be used and the details will be provided in the report.
A general note: Liver microsomes are a subcellular fraction often used to study metabolism.

Setting [2] is: Table 4, HEK-293 cells stably transfected with rat P2X7R, BzATP stimulation.
The mark [3] stands for this setting: Table 5, comparison with Compound 59 of WO2015118019.

Read-outs that look alike come from different tables or passages of the source.

rat P2X7R, sequence (Q64663 whole entry): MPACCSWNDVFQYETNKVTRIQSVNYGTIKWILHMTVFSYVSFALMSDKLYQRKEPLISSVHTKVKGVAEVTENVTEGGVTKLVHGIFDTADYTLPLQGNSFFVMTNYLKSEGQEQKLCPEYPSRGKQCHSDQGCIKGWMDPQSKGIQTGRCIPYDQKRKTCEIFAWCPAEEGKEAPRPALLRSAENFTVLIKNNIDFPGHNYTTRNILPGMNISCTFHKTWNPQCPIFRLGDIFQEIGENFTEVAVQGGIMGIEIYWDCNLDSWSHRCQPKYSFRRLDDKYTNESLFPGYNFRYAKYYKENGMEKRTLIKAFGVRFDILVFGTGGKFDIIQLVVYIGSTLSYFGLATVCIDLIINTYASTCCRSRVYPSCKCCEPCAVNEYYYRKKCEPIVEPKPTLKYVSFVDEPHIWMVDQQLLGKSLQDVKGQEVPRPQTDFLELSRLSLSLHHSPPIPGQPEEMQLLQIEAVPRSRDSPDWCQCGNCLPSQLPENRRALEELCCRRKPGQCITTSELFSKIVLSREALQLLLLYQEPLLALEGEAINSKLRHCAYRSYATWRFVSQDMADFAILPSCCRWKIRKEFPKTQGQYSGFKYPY

The term IC50 denotes the concentration at which inhibition is half-maximal. Take `Cc1ncsc1C(CNC(=O)c1c(F)cccc1Cl)N1CCC(Oc2cc(F)cc(F)c2)CC1` (centres unmarked) [Compound 11, 2-chloro-N-{2-[4-(3,5-difluorophenoxy)piperidin-1-yl]-2-(4-methyl-1,3-thiazol-5-yl)ethyl}-6-fluorobenzamide]: the IC50 at human P2X7 channel was found to be 30.6 nM; at rat P2X7R (setting [2]), 594 nM. Moreover, the “Human Liver Microsomal Clearance (CLi; μg/min/mg protein)” value (shortened to “Human Liver Microsomal Clearance”) in series [1] is given as 59.41.

As to `Cc1ncsc1C(CNC(=O)c1cccc2ncccc12)N1CCC(OCc2ccc(F)cc2)CC1` (centres unmarked) [Compound 13, N-(2-{4-[(4-fluorophenyl)methoxy]piperidin-1-yl}-2-(4-methyl-1,3-thiazol-5-yl)ethyl)quinoline-5-carboxamide], the IC50 came out at 42.1 nM at human P2X7 channel and 371 nM at rat P2X7R (setting [2]).

Regarding `Cc1ncsc1C(CNC(=O)c1cccc2ncccc12)N1CCC(OCc2cccc(F)c2)CC1` (centres unmarked) [Compound 15, N-(2-{4-[(3-fluorophenyl)methoxy]piperidin-1-yl}-2-(4-methyl-1,3-thiazol-5-yl)ethyl)quinoline-5-carboxamide], the half-inhibitory concentration (IC50) at human P2X7 channel worked out at 11.6 nM; at rat P2X7R (setting [2]), 288 nM.

Consider `Cc1ncsc1C(CNC(=O)c1cccc2ncccc12)N1CCC(OCc2cc(F)cc(F)c2)CC1` (centres unmarked) [Compound 17, N-(2-{4-[(3,5-difluorophenyl)methoxy]piperidin-1-yl}-2-(4-methyl-1,3-thiazol-5-yl)ethyl)quinoline-5-carboxamide], for which the IC50 came out at 32.9 nM on human P2X7 channel and 432 nM on rat P2X7R (setting [2]).

Consider `Cc1ncsc1C(CNC(=O)c1cccc2ncccc12)N1CCC(OCc2ccc(F)c(F)c2)CC1` (centres unmarked) [Compound 18, N-(2-{4-[(3,4-difluorophenyl)methoxy]piperidin-1-yl}-2-(4-methyl-1,3-thiazol-5-yl)ethyl)quinoline-5-carboxamide], for which the IC50 on human P2X7 channel came to 36.9 nM; on rat P2X7R (setting [2]), 374 nM.

Turning to `Cc1ncsc1C(CNC(=O)c1cccc2ncccc12)N1CCC(Oc2ccc(F)cc2)CC1` (centres unmarked) [Compound 19, N-{2-[4-(4-fluorophenoxy)piperidin-1-yl]-2-(4-methyl-1,3-thiazol-5-yl)ethyl}quinoline-5-carboxamide], the IC50 at human P2X7 channel is 23.9 nM; on rat P2X7R (setting [2]), 582 nM. Also, the “Human Liver Microsomal Clearance” value in series [1] turned out to be 71.12.

As for `Cc1ncsc1C(CNC(=O)c1cccc2ncccc12)N1CCC(Oc2cccc(F)c2)CC1` (centres unmarked) [Compound 21, N-{2-[4-(3-fluorophenoxy)piperidin-1-yl]-2-(4-methyl-1,3-thiazol-5-yl)ethyl}quinoline-5-carboxamide], the values for the IC50 at human P2X7 channel, at rat P2X7R (setting [2]) and at rat P2X7R (setting [3]) were 26.4 nM, 268 nM and 268 nM, respectively.

`Cc1ncsc1C(CNC(=O)c1cccc2ncccc12)N1CCC(Oc2ccccc2F)CC1` (centres unmarked) [Compound 22, N-{2-[4-(2-fluorophenoxy)piperidin-1-yl]-2-(4-methyl-1,3-thiazol-5-yl)ethyl}quinoline-5-carboxamide]: the IC50 amounted to 30.2 nM on human P2X7 channel and 355 nM at rat P2X7R (setting [2]). The “Human Liver Microsomal Clearance” value in series [1] was found to be 93.44.

As to `Cc1ncsc1C(CNC(=O)c1cccc2ncccc12)N1CCC(Oc2ccc(F)c(F)c2)CC1` (centres unmarked) [Compound 24, N-{2-[4-(3,4-difluorophenoxy)piperidin-1-yl]-2-(4-methyl-1,3-thiazol-5-yl)ethyl}quinoline-5-carboxamide], the IC50 on human P2X7 channel was found to be 57.9 nM; at rat P2X7R (setting [2]), 201 nM; on rat P2X7R (setting [3]) it was 201 nM.

On to `O=C(NCC(c1scnc1C(F)F)N1CCC(Oc2cccc(F)c2)CC1)c1c(F)cccc1Cl` (centres unmarked) [Compound 29, 2-chloro-N-{2-[4-(difluoromethyl)-1,3-thiazol-5-yl]-2-[4-(3-fluorophenoxy)piperidin-1-yl]ethyl}-6-fluorobenzamide], for which the IC50 on human P2X7 channel came to 28.9 nM; at rat P2X7R (setting [2]), 441 nM.

With `O=C(NCC(c1scnc1C(F)F)N1CCC(Oc2ccccc2F)CC1)c1c(F)cccc1Cl` (centres unmarked) [Compound 30, 2-chloro-N-{2-[4-(difluoromethyl)-1,3-thiazol-5-yl]-2-[4-(2-fluorophenoxy)piperidin-1-yl]ethyl}-6-fluorobenzamide], the IC50 on human P2X7 channel is 40.7 nM; on rat P2X7R (setting [2]), 329 nM.

Consider `O=C(NCC(c1scnc1C(F)F)N1CCC(OCc2ccc(F)c(F)c2)CC1)c1cccc2ncccc12` (centres unmarked) [Compound 33, N-{2-[4-(difluoromethyl)-1,3-thiazol-5-yl]-2-{4-[(3,4-difluorophenyl)methoxy]piperidin-1-yl}ethyl}quinoline-5-carboxamide], for which the values for the IC50 on human P2X7 channel and on rat P2X7R (setting [2]) were 56.2 nM and 182 nM, respectively.

Regarding `O=C(NCC(c1scnc1C(F)F)N1CCC(Oc2ccc(F)cc2)CC1)c1cccc2ncccc12` (centres unmarked) [Compound 34, N-{2-[4-(difluoromethyl)-1,3-thiazol-5-yl]-2-[4-(4-fluorophenoxy)piperidin-1-yl]ethyl}quinoline-5-carboxamide], the results for the IC50 at human P2X7 channel, on rat P2X7R (setting [2]) and on rat P2X7R (setting [3]) were 39.7 nM, 144 nM and 144 nM, respectively.

For `O=C(NCC(c1scnc1C(F)F)N1CCC(Oc2ccccc2F)CC1)c1cccc2ncccc12` (centres unmarked) [Compound 37, N-{2-[4-(difluoromethyl)-1,3-thiazol-5-yl]-2-[4-(2-fluorophenoxy)piperidin-1-yl]ethyl}quinoline-5-carboxamide], the results for the IC50 on human P2X7 channel, at rat P2X7R (setting [2]) and on rat P2X7R (setting [3]) were 43.2 nM, 133 nM and 133 nM, respectively.

Source of the values: patent publication US10669267B2, “Substituted N-[2-(4-phenoxypiperidin-1-yl)-2-(1,3-thiazol-5-yl)ethyl]benzamide and N-[2-(4-benzyloxypiperidin-1-yl)-2-(1,3-thiazol-5-yl)ethyl]benzamide derivatives P2X7 receptor antagonists” (Axxam S.P.A., priority 2016, dated 2020).
